The source of these data is patent US9302999B2, “Substituted triazoles as herbicides” (E. I. DU PONT DE NEMOURS AND COMPANY, priority 2012, dated 2016).

Molecules are shown by their SMILES. Where two headings read alike, the source gives them in different places.

Common to all, as to format: in vivo
One test deals with rice (Oryza sativa). Put plainly: Test C flooded paddy test: rice. To be noted: scale 0 to 100 (0 no effect, 100 complete control); for plant injury at 125 g/ha / plant injury at 250 g/ha / plant injury at 62 g/ha: Oryza sativa, read-out: Plant response rating, Rice. Summed up:
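Plants at 2-leaf stage in pots flooded 3 cm above soil; compounds applied directly into the paddy water, depth maintained. Visual rating against controls after 13–15 days in greenhouse, scale 0 (no effect) to 100 (complete control).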

The subject of test [1] is deadnettle (henbit deadnettle, Lamium amplexicaule). Put plainly: Test C postemergence: deadnettle. From the text: At the same time, plants selected from these crop and weed species and also barley (winter barley, Hordeum vulgare), canarygrass (Phalaris minor), chickweed (common chickweed, Stellaria media) windgrass (Apera spica-venti) and deadnettle (henbit deadnettle, Lamium amplexicaule) were planted in pots containing Redi-Earth® planting medium (Scotts Company, 14111 Scottslawn Road, Marysville, Ohio 43041) comprising spaghnum peat moss, vermiculite, wetting agent and starter nutrients and treated with postemergence applications of test chemicals formulated in the same manner. Plants ranged in height from 2 to 18 cm (1- to 4-leaf stage) for postemergence treatments.
Treated plants and controls were maintained in a greenhouse for 13 to 15 days, after which time all species were compared to controls and visually evaluated. Plant response ratings, summarized in Table C, are based on a scale of 0 to 100 where 0 is no effect and 100 is complete control. A dash (-) response means no test result.

The test system of test [2] is windgrass (Apera spica-venti). The experiment in a line: Test D pre-/postemergence: windgrass. From the text: (§1) Seeds of plant species selected from bluegrass (annual bluegrass, Poa annua), blackgrass (Alopecurus myosuroides), canarygrass (Phalaris minor), chickweed (common chickweed, Stellaria media), galium (catchweed bedstraw, Galium aparine), bromegrass, downy (downy bromegrass, Bromus tectorum), field poppy (Papaver rhoeas), field violet (Viola arvensis), foxtail, green (green foxtail, Setaria viridis), deadnettle (henbit deadnettle, Lamium amplexicaule), ryegrass, Italian (Italian ryegrass, Lolium multiflorum), kochia (Kochia scoparia), lambsquarters (Chenopodium album), oilseed rape (Brassica napus), pigweed (Amaranthus retroflexus), Russian thistle (Salsola iberica), chamomile (scentless chamomile, Matricaria inodora), speedwell (bird's-eye speedwell, Veronica persica), barley, spring (spring barley, Hordeum vulgare), wheat, spring (spring wheat, Triticum aestivum), buckwheat, wild (wild buckwheat, Polygonum convolvulus), mustard, wild (wild mustard, Sinapis arvensis), oat, wild (wild oat, Avena fatua), radish, wild (wild radish, Raphanus raphanistrum), windgrass (Apera spica-venti), barley, winter (winter barley, Hordeum vulgare), and wheat, winter (winter wheat, Triticum aestivum) were planted into a silt loam soil and treated preemergence with test chemicals formulated in a non-phytotoxic solvent mixture which included a surfactant. At the same time, these same crop and weed species were planted in pots containing the planting medium comprising spaghnum peat moss, vermiculite, wetting agent and starter nutrients and treated with postemergence applications of the test chemicals formulated in the same manner. Plants ranged in height from 2 to 18 cm (1- to 4-leaf stage).
(§2) Treated plants and controls were maintained in a controlled growth environment for 14 to 21 days after which time all species were compared to controls and visually evaluated. Plant response ratings, summarized in Table D, are based on a scale of 0 to 100 where 0 is no effect and 100 is complete control. A dash (-) response means no test result.

In test [3] the test system is blackgrass (Alopecurus myosuroides). The experiment in a line: Test D pre-/postemergence: blackgrass.
Text: as §1, §2

Where [4] appears, read: Flood (flooded paddy test), 125 g ai/ha, visual rating after 13 to 15 days.
Setting [5] is: Flood (flooded paddy test), 250 g ai/ha, visual rating after 13 to 15 days.
Where [6] appears, read: 31 g ai/ha, scale 0 to 100 (0 no effect, 100 complete control).
[7] abbreviates: 62 g ai/ha, scale 0 to 100 (0 no effect, 100 complete control).
[8] abbreviates: 125 g ai/ha, scale 0 to 100, 0 no effect, 100 complete control.
[9] abbreviates: Postemergence, 31 g ai/ha, scale 0 to 100 (0 no effect, 100 complete control).
Setting [10] is: Postemergence, 62 g ai/ha, scale 0 to 100 (0 no effect, 100 complete control).
The mark [11] stands for this setting: Postemergence, 125 g ai/ha, scale 0 to 100, 0 no effect, 100 complete control.
Where [12] appears, read: Postemergence, 250 g ai/ha, scale 0 to 100 (0 no effect, 100 complete control).
[13] abbreviates: Postemergence, 16 g ai/ha, scale 0 to 100.
The mark [14] stands for this setting: Preemergence, 31 g ai/ha, scale 0 to 100, 0 no effect, 100 complete control.
Setting [15] is: Preemergence, 62 g ai/ha, scale 0 to 100.
The mark [16] stands for this setting: Preemergence, 125 g ai/ha, scale 0 to 100.
The mark [17] stands for this setting: Preemergence, 250 g ai/ha, scale 0 to 100.
Setting [18] is: Flood (flooded paddy test), 62 g ai/ha, visual rating after 13 to 15 days.

For the compound `COCc1nn(-c2ccc(C(F)(F)F)cc2)nc1Oc1cccc(OC(F)(F)F)c1` [Compound 115, 4-(methoxymethyl)-5-[3-(trifluoromethoxy)phenoxy]-2-[4-(trifluoromethyl)phenyl]-2H-1,2,3-triazole], the plant injury at 125 g/ha with rice (Oryza sativa) (setting [4]) was found to be 30%. Further, in the test on rice (Oryza sativa) (setting [5]), the plant injury at 250 g/ha stood at 40%. Besides, the plant injury at 62 g/ha in the test with rice (Oryza sativa) (Flood, 62 g ai/ha) came out at 20%.

Regarding `Cc1nn(-c2ccnc(Cl)c2)nc1Cc1ccnc(C(F)(F)F)c1` [Compound 141], the “Plant response rating, Deadnettle” value is given as 100 in test [1] (setting [6]); 100 in test [1] (setting [7]); 100 in test [1] (setting [8]); 100 in test [1] (250 g ai/ha, scale 0 to 100).

Take `Fc1ccc(-n2nc(Cc3ccnc(C(F)(F)F)c3)c(OC(F)F)n2)cc1` [Compound 25]: the “Plant response rating, Deadnettle” value in test [1] (setting [6]) worked out at 50; in test [1] (setting [7]), 55; in test [1] (setting [8]), 90; in test [1] (250 g ai/ha, scale 0 to 100), 100.

Consider `COc1nn(-c2ccc(C(F)(F)F)cc2)nc1Cc1ccnc(C(F)(F)F)c1` [Compound 15, 4-[[5-methoxy-2-[4-(trifluoromethyl)phenyl]-2H-1,2,3-triazol-4-yl]methyl]-2-(trifluoromethyl)pyridine], for which the “Plant response rating, Deadnettle” value in test [1] (16 g ai/ha, scale 0 to 100, 0 no effect, 100 complete control) is reported as 90; in test [1] (setting [6]), 100; in test [1] (setting [7]) it was 100; in test [1] (setting [8]) it was 100. The “Plant response rating: Windgrass” value in test [2] (setting [9]) is given as 10; in test [2] (setting [10]) it was 25; in test [2] (setting [11]) it was 75; in test [2] (setting [12]), 100. The “Plant response rating, Windgrass” value in test [2] (setting [13]) was determined as 5; in test [2] (setting [14]), 30; in test [2] (setting [15]), 40; in test [2] (setting [16]), 100; in test [2] (setting [17]), 100. Moreover, the “Plant response rating: Blackgrass” value was determined as 15 in test [3] (setting [9]), 30 in test [3] (setting [10]), 50 in test [3] (setting [11]) and 85 in test [3] (setting [12]). In addition, the “Plant response rating, Blackgrass” value in test [3] (setting [13]) was found to be 15; in test [3] (setting [14]) it was 0; in test [3] (setting [15]), 25; in test [3] (setting [16]) it was 80; in test [3] (setting [17]) it was 90. The plant injury at 62 g/ha in the test on rice (Oryza sativa) (setting [18]) was 45%. Further, the plant injury at 250 g/ha in the test on rice (Oryza sativa) (setting [5]) came out at 50%.

Take `Cc1nn(-c2ccc(C(F)(F)F)cn2)nc1Cc1cccc(C(F)(F)F)c1` [Compound 106]: the “Plant response rating, Deadnettle” value in test [1] (setting [6]) is given as 75; in test [1] (setting [7]) it was 80; in test [1] (setting [8]), 90; in test [1] (250 g ai/ha, scale 0 to 100) it was 90. Also, the “Plant response rating: Windgrass” value in test [2] (setting [9]) came out at 10; in test [2] (setting [10]), 25; in test [2] (setting [11]), 35; in test [2] (setting [12]), 50. Moreover, the “Plant response rating, Windgrass” value was 5 in test [2] (setting [13]); 5 in test [2] (setting [14]); 5 in test [2] (setting [15]); 25 in test [2] (setting [16]); 80 in test [2] (setting [17]). Moreover, the “Plant response rating: Blackgrass” value came out at 10 in test [3] (setting [9]), 10 in test [3] (setting [10]), 20 in test [3] (setting [11]) and 30 in test [3] (setting [12]). Moreover, the “Plant response rating, Blackgrass” value in test [3] (setting [13]) worked out at 5; in test [3] (setting [14]), 0; in test [3] (setting [15]) it was 0; in test [3] (setting [16]), 0; in test [3] (setting [17]), 0. Also, the “Plant response rating, Rice” value is 25 in the test with rice (Oryza sativa) (setting [4]); 30 with rice (Oryza sativa) (setting [5]); 0 in the test with rice (Oryza sativa) (Flood, 31 g ai/ha); 0 in the test with rice (Oryza sativa) (Flood, 62 g ai/ha).

In the case of `COc1nn(-c2ccc(C(F)(F)F)cc2)nc1Cc1ccnc(C(F)F)c1` [Compound 138], the “Plant response rating, Deadnettle” value in test [1] (setting [6]) worked out at 98; in test [1] (setting [7]) it was 100; in test [1] (setting [8]) it was 100; in test [1] (250 g ai/ha, scale 0 to 100) it was 100. Besides, the “Plant response rating: Windgrass” value stood at 50 in test [2] (setting [10]), 60 in test [2] (setting [11]) and 90 in test [2] (setting [12]). Besides, the “Plant response rating, Windgrass” value in test [2] (setting [13]) is reported as 15; in test [2] (Postemergence, 31 g ai/ha, scale 0 to 100), 30. In addition, the “Plant response rating: Blackgrass” value in test [3] (setting [9]) came out at 50; in test [3] (setting [10]), 70; in test [3] (setting [11]), 80; in test [3] (setting [12]) it was 85. Moreover, in test [3] (setting [13]), the “Plant response rating, Blackgrass” value is recorded as 30.

Consider `FC(F)(F)c1ccc(-n2nc(Cl)c(Cc3ccnc(C(F)(F)F)c3)n2)cc1` [Compound 28], for which the “Plant response rating, Deadnettle” value in test [1] (setting [6]) is listed as 40; in test [1] (setting [7]), 80; in test [1] (setting [8]), 90; in test [1] (250 g ai/ha, scale 0 to 100) it was 100.

Regarding `FC(F)Oc1nn(-c2ccc(C(F)(F)F)cc2)nc1Cc1ccnc(C(F)(F)F)c1` [Compound 26], the “Plant response rating, Deadnettle” value was 98 in test [1] (setting [6]); 98 in test [1] (setting [7]); 98 in test [1] (setting [8]); 100 in test [1] (250 g ai/ha, scale 0 to 100).

For the compound `Cc1nn(-c2ccc(C(F)(F)F)cc2)nc1Oc1csc(C(F)(F)F)c1` [Compound 1, 4-methyl-2-[4-(trifluoromethyl)phenyl]-5-[[5-(trifluoromethyl)-3-thienyl]oxy]-2H-1,2,3-triazole], the plant injury at 62 g/ha in the test on rice (Oryza sativa) (setting [18]) turned out to be 0%. Besides, in the test on rice (Oryza sativa) (setting [5]), the plant injury at 250 g/ha came out at 0%.

With `FCc1nn(-c2ccc(C(F)(F)F)cc2)nc1Oc1cccc(OC(F)(F)F)c1` [Compound 116, 4-(fluoromethyl)-5-[3-(trifluoromethoxy)phenoxy]-2-[4-(trifluoromethyl)phenyl]-2H-1,2,3-triazole], in the test on rice (Oryza sativa) (setting [4]), the plant injury at 125 g/ha came to 20%. For the same compound, the plant injury at 250 g/ha with rice (Oryza sativa) (setting [5]) worked out at 30%. For the same compound, in the test on rice (Oryza sativa) (Flood, 62 g ai/ha), the plant injury at 62 g/ha was 0%.
